These compounds were tested against T1, hCB1 (Homo sapiens, UniProt P21554) (assay: Agonist-induced GTP binding (GTPγ35S) assay at CB1, Example 8). Conditions: Table I; IC50 at CB1, GTP binding with 1 nM CP55,940; read-out: IC50.
T1 construct: made in house; host or cells: Sf9 insect cells (baculovirus), P2 membranes
Format: biochemical
From the text: As noted above, compounds provided herein are CB1 antagonists. Certain such compounds are non-competitive CB1 antagonists. In addition, or alternatively, certain compounds provided herein display CB1 specificity. CB1 antagonist activity may be confirmed using an agonist-induced GTP binding assay, such as the assay described in Example 8. Such assays employ a CB1-containing cell membrane preparation (e.g., a preparation of membranes of insect cells that recombinantly express CB1) to determine the effect of a test compound on CB1 agonist-induced GTP binding to CB1. Briefly, a first cell membrane preparation comprising CB1 is contacted with: (i) labeled GTP; (ii) a CB1 agonist; and (iii) a test compound to yield a test membrane preparation. Simultaneously, or in either order, a second cell membrane preparation comprising CB1 is contacted with: (i) labeled GTP; and (ii) a CB1 agonist to yield a control membrane preparation. The labeled GTP is preferably GTPγ^35S; a representative CB1 agonist is CP55,940. Such contact is performed under conditions that are suitable for GTP binding to CB1, such as the conditions described in Example 8. The concentrations of labeled GTP and CB1 agonist used are generally concentrations that are sufficient to result in a detectable increase in the amount of labeled GTP bound to the membrane preparation in the presence of CB1 agonist. Such concentrations may be determined by routine experimentation; representative suitable concentrations are provided in Example 8. Generally, a range of test compound concentrations is used (e.g., ranging from 10^−10M to 10^−5M).
After sufficient contact (e.g., incubation) to allow GTP binding to the membrane preparations, a signal that corresponds to (represents) the amount of bound, labeled GTP is detected (typically, unbound labeled GTP is first removed via a washing step). In other words, simultaneously or in either order: (i) a test signal that represents an amount of bound, labeled GTP in the test membrane preparation is detected; and (ii) a control signal that represents an amount of bound, labeled GTP in the control membrane preparation is detected. The nature of the signal detected is determined by the type of label used. For example, if the GTP is radioactively labeled, the signal detected is radioactive decay (e.g., via liquid scintillation spectrometry). The CB1 antagonist activity of the test compound is then determined by comparing the test signal with the control signal.
This assay can also be used to detect partial agonism mediated by antagonist compounds. A compound being analyzed in this assay is referred to herein as a “test compound.” Agonist-stimulated GTP binding activity is measured as follows: Four independent baculoviral stocks (one directing the expression of hCB1 and three directing the expression of each of the three subunits of a heterotrimeric G-protein) are used to infect a culture of Sf9 cells as described in Example 5.
Agonist-stimulated GTP binding on purified membranes (as described in Example 6) is initially assessed using the cannabinoid agonist CP55,940 to ascertain that the receptor/G-protein-alpha-beta-gamma combination(s) yield a functional response as measured by GTP binding.
P2 membranes are resuspended by Dounce homogenization (tight pestle) in GTP binding assay buffer (50 mM Tris pH 7.4, 120 mM NaCl, 5 mM MgCl2, 2 mM EGTA, 0.1% BSA, 0.1 mM bacitracin, 10 KIU/mL aprotinin, 5 μM GDP) and added to reaction tubes at a concentration of 10 μg protein/reaction tube. After adding increasing doses of the agonist CP55,940 at concentrations ranging from 10^−12 M to 10^−6 M, reactions are initiated by the addition of […] GTPγ^35S. In competition experiments, non-radiolabeled test compounds are added to separate assays at concentrations ranging from 10^−10 M to 10^−5 M along with 1 nM CP55,940 to yield a final volume of 0.25 mL. […]

T1 sequence (P21554 whole entry): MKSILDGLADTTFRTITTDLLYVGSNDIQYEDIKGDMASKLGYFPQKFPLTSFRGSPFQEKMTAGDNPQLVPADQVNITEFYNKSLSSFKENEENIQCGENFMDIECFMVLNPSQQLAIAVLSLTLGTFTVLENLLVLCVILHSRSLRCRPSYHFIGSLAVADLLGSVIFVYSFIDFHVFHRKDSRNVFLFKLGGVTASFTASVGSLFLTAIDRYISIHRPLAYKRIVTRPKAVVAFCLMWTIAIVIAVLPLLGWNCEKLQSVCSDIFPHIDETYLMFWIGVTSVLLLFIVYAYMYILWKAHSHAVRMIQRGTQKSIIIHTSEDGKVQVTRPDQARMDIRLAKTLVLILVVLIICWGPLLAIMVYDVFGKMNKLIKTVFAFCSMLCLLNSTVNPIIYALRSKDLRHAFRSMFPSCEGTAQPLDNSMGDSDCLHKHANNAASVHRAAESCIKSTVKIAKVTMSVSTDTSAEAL

Q: For `O=C(Nc1ccc(OC(F)F)cc1)Nc1ccc(OC(F)F)cc1` [Compound 4, N,N′-bis[4-(difluoromethoxy)phenyl]urea], which IC50 is on record?
A: < 2000 nM

Q: How did the IC50 turn out when `CCc1ccc(NC(=O)Nc2ccc(OC(F)F)cc2)cc1` [Compound 5, N-[4-(difluoromethoxy)phenyl]-N′-(4-ethylphenyl)urea] was run?
A: < 2000 nM

Q: Which IC50 does the source give for `COc1cc(NC(=O)Nc2ccc(OC(F)F)cc2)ccc1OC(F)F` [Compound 6, N-[4-(difluoromethoxy)-3-methoxyphenyl]-N′-[4-(difluoromethoxy)phenyl]urea] here?
A: < 2000 nM

Q: For `N#Cc1cccc(NC(=O)Nc2ccc(OC(F)F)cc2)c1` [Compound 8, N-(3-cyanophenyl)-N′-[4-(difluoromethoxy)phenyl]urea], which IC50 is on record?
A: < 2000 nM

Q: For `CCOc1cccc(NC(=O)Nc2ccc(OC(F)F)cc2)c1` [Compound 9, N-[4-(difluoromethoxy)phenyl]-N′-(3-ethoxyphenyl)urea], which IC50 is on record?
A: < 2000 nM

Q: `Cc1nccc(-c2cccc(NC(=O)Nc3ccc(OC(F)F)cc3)c2)n1` [Compound 10, N-[4-(difluoromethoxy)phenyl]-N′-[3-(2-methylpyrimidin-4-yl)phenyl]urea] was tested. Which IC50 did it give?
A: < 2000 nM

Q: With `CCc1cccc(NC(=O)Nc2ccc(OC(F)F)cc2)c1` [Compound 11, N-[4-(difluoromethoxy)phenyl]-N′-(3-ethylphenyl)urea] as the compound, how does the IC50 read?
A: < 2000 nM

Q: For `CC(=O)c1cccc(NC(=O)Nc2ccc(OC(F)F)cc2)c1` [Compound 12, N-(3-acetylphenyl)-N′-[4-(difluoromethoxy)phenyl]urea], which IC50 is on record?
A: < 2000 nM

Q: How did the IC50 turn out when `O=C(Nc1ccc(OC(F)F)cc1)Nc1cccc(OCCO)c1` [Compound 14, N-[4-(difluoromethoxy)phenyl]-N′-[3-(2-hydroxyethoxy)phenyl]urea] was run?
A: < 2000 nM

Q: How did the IC50 turn out when `O=C(Nc1ccc(OC(F)F)cc1)Nc1cccc(Cl)c1` [Compound 15, N-(3-chlorophenyl)-N′-[4-(difluoromethoxy)phenyl]urea] was run?
A: < 2000 nM

Q: For `O=C(Nc1ccc(OC(F)F)cc1)Nc1cccc(F)c1` [Compound 16, N-[4-(difluoromethoxy)phenyl]-N′-(3-fluorophenyl)urea], which IC50 is on record?
A: < 2000 nM

Q: For `O=C(Nc1ccc(OC(F)F)cc1)Nc1cccc(O)c1` [Compound 17, N-[4-(difluoromethoxy)phenyl]-N′-(3-hydroxyphenyl)urea], which IC50 is on record?
A: < 2000 nM

Q: With `Cc1cccc(NC(=O)Nc2ccc(OC(F)F)cc2)c1` [Compound 18, N-[4-(difluoromethoxy)phenyl]-N′-(3-methylphenyl)urea] as the compound, how does the IC50 read?
A: < 2000 nM

Q: With `CCCc1ccc(NC(=O)Nc2ccc(CC)cc2)cc1` [Compound 20, N-(4-ethylphenyl)-N′-(4-propylphenyl)urea] as the compound, how does the IC50 read?
A: < 2000 nM

Q: For `CCc1ccc(NC(=O)Nc2ccc(CC)cc2)cc1` [Compound 21, N,N′-bis(4-ethylphenyl)urea], which IC50 is on record?
A: < 2000 nM

Q: Which IC50 does the source give for `CCc1ccc(NC(=O)Nc2ccc(C(C)=O)cc2)cc1` [Compound 22, N-(4-acetylphenyl)-N′-(4-ethylphenyl)urea] here?
A: < 2000 nM

Q: How did the IC50 turn out when `CCc1ccc(NC(=O)Nc2cccc(OC(C)C)c2)cc1` [Compound 23, N-(4-ethylphenyl)-N′-(3-isopropoxyphenyl)urea] was run?
A: < 2000 nM

Q: For `CCCOc1ccc(NC(=O)Nc2ccc(CC)cc2)cc1` [Compound 24, N-(4-ethylphenyl)-N′-(4-propoxyphenyl)urea], which IC50 is on record?
A: < 2000 nM

Q: `CCc1ccc(NC(=O)Nc2ccc(Cl)cc2)cc1` [Compound 25, N-(4-chlorophenyl)-N′-(4-ethylphenyl)urea] was tested. Which IC50 did it give?
A: < 2000 nM

Q: Which IC50 does the source give for `CCc1ccc(NC(=O)Nc2ccc(C#N)cc2)cc1` [Compound 27, N-(4-cyanophenyl)-N′-(4-ethylphenyl)urea] here?
A: < 2000 nM

Q: For `CCc1ccc(NC(=O)Nc2ccc(CO)cc2)cc1` [Compound 28, N-(4-ethylphenyl)-N′-[4-(hydroxymethyl)phenyl]urea], which IC50 is on record?
A: < 2000 nM

Q: How did the IC50 turn out when `CCc1ccc(NC(=O)Nc2ccc(O)cc2)cc1` [Compound 29, N-(4-ethylphenyl)-N′-(4-hydroxyphenyl)urea] was run?
A: < 2000 nM

Q: Which IC50 does the source give for `CCc1ccc(NC(=O)Nc2ccccc2)cc1` [Compound 35, N-(4-ethylphenyl)-N′-phenylurea] here?
A: < 2000 nM

Q: For `CCCCc1ccc(NC(=O)Nc2ccc(C)cc2)cc1` [Compound 37, N-(4-butylphenyl)-N′-(4-methylphenyl)urea], which IC50 is on record?
A: < 2000 nM

Q: `Cc1ccc(NC(=O)Nc2cccc(OC(C)C)c2)cc1` [Compound 38, N-(3-isopropoxyphenyl)-N′-(4-methylphenyl)urea] was tested. Which IC50 did it give?
A: < 2000 nM

Q: How did the IC50 turn out when `CCCc1ccc(NC(=O)Nc2ccc(C)cc2)cc1` [Compound 39, N-(4-methylphenyl)-N′-(4-propylphenyl)urea] was run?
A: < 2000 nM

Q: `CCCOc1ccc(NC(=O)Nc2ccc(C)cc2)cc1` [Compound 40, N-(4-methylphenyl)-N′-(4-propoxyphenyl)urea] was tested. Which IC50 did it give?
A: < 2000 nM

Q: With `Cc1ccc(NC(=O)Nc2ccc(OC(F)F)cc2)cc1` [Compound 41, N-[4-(difluoromethoxy)phenyl]-N′-(4-methylphenyl)urea] as the compound, how does the IC50 read?
A: < 2000 nM

Q: `CCc1ccc(NC(=O)Nc2ccc(C)cc2)cc1` [Compound 42, N-(4-ethylphenyl)-N′-(4-methylphenyl)urea] was tested. Which IC50 did it give?
A: < 2000 nM

Q: For `Cc1ccc(NC(=O)Nc2ccc(Cl)cc2)cc1` [Compound 43, N-(4-chlorophenyl)-N′-(4-methylphenyl)urea], which IC50 is on record?
A: < 2000 nM

Q: For `CCCOc1ccc(NC(=O)Nc2ccccc2)cc1` [Compound 44, N-phenyl-N′-(4-propoxyphenyl)urea], which IC50 is on record?
A: < 2000 nM

Q: `CCCc1ccc(NC(=O)Nc2ccccc2)cc1` [Compound 45, N-phenyl-N′-(4-propylphenyl)urea] was tested. Which IC50 did it give?
A: < 2000 nM

Q: Which IC50 does the source give for `CCCCc1ccc(NC(=O)Nc2ccccc2)cc1` [Compound 46, N-(4-butylphenyl)-N′-phenylurea] here?
A: < 2000 nM

Q: `CC(C)c1ccc(NC(=O)Nc2ccccc2)cc1` [Compound 47, N-(4-isopropylphenyl)-N′-phenylurea] was tested. Which IC50 did it give?
A: < 2000 nM

Q: How did the IC50 turn out when `O=C(Nc1ccccc1)Nc1ccc(OC(F)F)cc1` [Compound 48, N-[4-(difluoromethoxy)phenyl]-N′-phenylurea] was run?
A: < 2000 nM

Q: How did the IC50 turn out when `CC(C)Oc1cccc(NC(=O)Nc2ccccc2)c1` [Compound 49, N-(3-isopropoxyphenyl)-N′-phenylurea] was run?
A: < 2000 nM

Q: Which IC50 does the source give for `CCc1ccc(NC(=O)Nc2ccc(OC(F)F)c(OC)c2)cc1` [Compound 53, N-[4-(difluoromethoxy)-3-methoxyphenyl]-N′-(4-ethylphenyl)urea] here?
A: < 2000 nM

Q: For `COc1cc(NC(=O)Nc2ccc(OC(F)F)c(OC)c2)ccc1OC(F)F` [Compound 54, N,N′-bis[4-(difluoromethoxy)-3-methoxyphenyl]urea], which IC50 is on record?
A: < 2000 nM

Q: `CCc1ccc(NC(=O)Nc2cccc(C#N)c2)cc1` [Compound 55, N-(3-cyanophenyl)-N′-(4-ethylphenyl)urea] was tested. Which IC50 did it give?
A: < 2000 nM

Q: With `CCc1ccc(NC(=O)Nc2cccc(C(C)=O)c2)cc1` [Compound 56, N-(3-acetylphenyl)-N′-(4-ethylphenyl)urea] as the compound, how does the IC50 read?
A: < 2000 nM

Q: With `CCc1ccc(NC(=O)Nc2cccc(OC)c2)cc1` [Compound 57, N-(4-ethylphenyl)-N′-(3-methoxyphenyl)urea] as the compound, how does the IC50 read?
A: < 2000 nM

Q: `CCc1ccc(NC(=O)Nc2cccc(F)c2)cc1` [Compound 58, N-(4-ethylphenyl)-N′-(3-fluorophenyl)urea] was tested. Which IC50 did it give?
A: < 2000 nM

Q: `CCc1ccc(NC(=O)Nc2cccc(C)c2)cc1` [Compound 59, N-(4-ethylphenyl)-N′-(3-methylphenyl)urea] was tested. Which IC50 did it give?
A: < 2000 nM

Same assay, conditions: Table II; IC50 at CB1, GTP binding with 1 nM CP55,940; read-out: IC50

Q: For `COc1cc(NC(=O)Nc2ccc(C)cc2)ccc1OC(F)F` [Compound 61, N-[4-(difluoromethoxy)-3-methoxyphenyl]-N′-(4-methylphenyl)urea], which IC50 is on record?
A: < 2000 nM

Q: How did the IC50 turn out when `O=C(Nc1ccc(OC(F)F)cc1)Nc1cccc(-c2ccccn2)c1` [Compound 62, N-[4-(difluoromethoxy)phenyl]-N′-(3-pyridin-2-ylphenyl)urea] was run?
A: < 2000 nM

From patent US20090239841A1, “Diaryl Ureas as CB1 Antagonists” (priority 2004, published 2009)
